According to patent US5145960A, “Pyrimidinyl tetrahydrofurans” (priority 1991, dated 1992):

Key:
Format in all cases: cell-based
[1] = tested on: HSV-1 (herpes simplex virus type 1); assay: HSV-1 (strain schooler) plaque reduction in WI-38 cell monolayers; details: Human alphaherpesvirus 1, 96 h; WI-38 cells; at least 50% plaque reduction; 4 days at 37° C.; read-out: ID50 HSV-1 (strain schooler)
[2] = tested on: HSV-2 (herpes simplex virus type 2); assay: HSV-2 (strain 186) plaque reduction in WI-38 cell monolayers; details: Human alphaherpesvirus 2, 96 h; WI-38 cells; at least 50% plaque reduction; 4 days at 37° C.; read-out: ID50 HSV-2 (strain 186)
[3] = tested on: HCMV (human cytomegalovirus); assay: HCMV (strain AD169) plaque reduction in WI-38 cell monolayers; details: Human betaherpesvirus 5, AD169; WI-38 cells; at least 50% plaque reduction; 5-7 days at 37° C.; read-out: ID50 HCMV (strain AD169)
[4] = tested on: VZV (varicella-zoster virus), strain Ellen; assay: VZV (strain Ellen) plaque reduction in WI-38 cell monolayers; details: Human alphaherpesvirus 3; WI-38 cells; at least 50% plaque reduction; 5-7 days at 37° C.; read-out: ID50 VZV (strain Ellen)
VV (vaccinia virus) = assay: microbe, parasite or virus in culture; details: Orthopoxvirus vaccinia, WI-38, 96 h, read-out: ID50 VV (strain CL)
[5] = tested on: VZV (varicella-zoster virus), strain Oka; assay: VZV (strain Oka) plaque reduction in WI-38 cell monolayers; details: Human alphaherpesvirus 3, WI-38, read-out: ID50 VZV (strain Oka)

| SMILES | IC50 [1] [µM] | IC50 [2] [µM] | IC50 [3] [µM] | IC50 [4] [µM] | IC50 (VV (vaccinia virus)) [µM] | IC50 [5] [µM] |
| --- | --- | --- | --- | --- | --- | --- |
| Nc1nc2c(ncn2[C@@H]2CO[C@H](CO)[C@H]2CO)c(=O)[nH]1 [Example 1, [3S-(3α,4β,5α)]-2-Amino-1,9-dihydro-9-[tetrahydro-4,5-bis(hydroxymethyl)-3-furanyl]-6H-purin-6-one] | 7 | 1.8 | 356 | 18 to 36 | > 356 | – |
| Nc1ncnc2c1ncn2[C@@H]1CO[C@H](CO)[C@H]1CO [Example 2, [3S-(3α,4β,5α)]-9-[Tetrahydro-4,5-bis(hydroxymethyl)-3-furanyl]-9H-purin-6-amine] | 3.8 to 7.5 | 3.8 to 7.5 | 1.9 to 3.8 | 1.9 to 3.8 | 8 to 19 | – |
| Cc1cn([C@@H]2CO[C@H](CO)[C@H]2CO)c(=O)[nH]c1=O [Example 3, [3S-(3α,4β,5α)]-5-Methyl-1-[tetrahydro-4,5-bis(hydroxymethyl)-3-furanyl]-2,4(1H,3H)-pyrimidinedione] | 2 to 4 | 195 to 390 | > 390 | 8 to 19 | – | – |
| O=c1ccn([C@@H]2CO[C@H](CO)[C@H]2CO)c(=O)[nH]1 [Example 4, [3S-(3α,4β,5α)]-1-[Tetrahydro-4,5-bis(hydroxymethyl)-3-furanyl]-2,4(1H,3H)-pyrimidinedione] | > 413 | > 413 | > 413 | 41 to 103 | – | – |
| O=c1[nH]c(=O)n([C@@H]2CO[C@H](CO)[C@H]2CO)cc1I [Example 5, [3S-(3α,4β,5α)]-5-Iodo-1-[tetrahydro-4,5-bis(hydroxymethyl)-3-furanyl]-2,4(1H,3H)-pyrimidinedione] | 68 to 136 | > 272 | > 272 | 27 to 68 | – | – |
| Nc1ccn([C@@H]2CO[C@H](CO)[C@H]2CO)c(=O)n1 [Example 6, [3S-(3α,4β,5α)]-4-Amino-1-[tetrahydro-4,5-bis(hydroxymethyl)-3-furanyl]-2(1H)-pyrimidinone] | 21 to 41 | 21 to 41 | 41 to 104 | 0.2 to 0.4 | 41 to 415 | – |
| O=c1[nH]c(=O)n([C@@H]2CO[C@H](CO)[C@H]2CO)cc1/C=C/Br [Example 7, [3S-(3α(E),4β,5α)]-5-(2-Bromoethenyl)-1-[tetrahydro-4,5-bis(hydroxymethyl)-3-furanyl]-2,4(1H,3H)-pyrimidinedione] | 1.4 to 2.8 | > 288 | > 288 | > 288 | – | 1.4 |
| Cc1cn([C@@H]2CO[C@H](CO)[C@H]2CO)c(=O)nc1N [Example 8, [3S-(3α,4β,5α)]-4-Amino-5-methyl-1-[tetrahydro-4,5-bis(hydroxymethyl)-3-furanyl]-2(1H)-pyrimidinone] | 293 | 392 | > 392 | 40 | – | – |
| Nc1nc(=O)n([C@@H]2CO[C@H](CO)[C@H]2CO)cc1I [Example 9, [3S-(3α,4β ,5α)]-4-Amino-5-iodo-1-[tetrahydro-4,5-bis(hydroxymethyl)-3-furanyl]-2(1H)-pyrimidinone] | 68 to 136 | > 272 | > 272 | 5 to 14 | – | – |
